Tests used:
[1] = Hygroscopicity by dynamic vapor sorption (DVS); format: physicochemical; details: for solid form post DVS experiment: after sorption/desorption cycle up to 95% RH at 25° C.; for water absorbed (dynamic vapor sorption): up to 95% RH at 25° C.
Description: Hygroscopicity was studied using dynamic vapor sorption (DVS, TA Q5000 SA, TA Instruments, New Castle, DE or DVS, DVS Intrinsic, Surface Measurement Systems, London, UK). A sample (1-20 mg) was placed in an aluminum DVS pan and loaded on the sample side of the twin pan balance. The water sorption and desorption were studied as a function of relative humidity (RH) at 25° C. In 10% RH increments, the relative humidity was increased from 5% RH to 95% RH and then decreased back to 5%. […] Data analysis was performed using Universal Analysis 2000 Version 4.7A (TA Instruments, New Castle, DE) for TA DVS runs and Microsoft Excel for SMS DVS runs.

[2] = Physical form stability on drying under ambient conditions; format: physicochemical
Text: Compound of Formula I, Form II is a metastable methanol solvated phase. It was isolated when compound of Formula I, Form I was slurried in methanol for about 60 days and identified by x-ray of the wet cake. […] Compound of Formula I, Form III was also made when Form II was dried under ambient conditions.

solid form post DVS experiment [1] | water absorbed (dynamic vapor sorption) [1] | SMILES | form conversion upon drying [2]
not have changed form | about 0.097% | O=C(NCc1c(F)cc(F)cc1F)c1cn2c(c(O)c1=O)C(=O)N1CCCC[C@H]2C1 [Compound of Formula I, Form I, (7S)-12-hydroxy-1,11-dioxo-N-(2,4,6-trifluorobenzyl)-1,4,5,6,7,11-hexahydro-3H-2,7-methanopyrido[1,2-a][1,4]diazonine-10-carboxamide] | 
 |  | O=C(NCc1c(F)cc(F)cc1F)c1cn2c(c(O)c1=O)C(=O)N1CCCC[C@H]2C1 [Compound of Formula I, Form II, (7S)-12-hydroxy-1,11-dioxo-N-(2,4,6-trifluorobenzyl)-1,4,5,6,7,11-hexahydro-3H-2,7-methanopyrido[1,2-a][1,4]diazonine-10-carboxamide] | convert to compound of Formula I, Form III
not have changed form | about 0.87% | O=C(NCc1c(F)cc(F)cc1F)c1cn2c(c(O)c1=O)C(=O)N1CCCC[C@H]2C1 [Compound of Formula I, Form III, (7S)-12-hydroxy-1,11-dioxo-N-(2,4,6-trifluorobenzyl)-1,4,5,6,7,11-hexahydro-3H-2,7-methanopyrido[1,2-a][1,4]diazonine-10-carboxamide] | 
not have changed form | about 3.5% | O=C(NCc1c(F)cc(F)cc1F)c1cn2c(c(O)c1=O)C(=O)N1CCCC[C@H]2C1 [Compound of Formula I, Form IV, (7S)-12-hydroxy-1,11-dioxo-N-(2,4,6-trifluorobenzyl)-1,4,5,6,7,11-hexahydro-3H-2,7-methanopyrido[1,2-a][1,4]diazonine-10-carboxamide] | 
